Data from PubChem BioAssay AID2060897 (Molecular Pharmacology Branch, DTP, NCI, 2025).

Tested on: 966289-007-R4-J1-PDC complex spheroid viability
Assay: Anticancer human tumor 966289-007-R4-J1-PDC patient-derived pancreatic adenocarcinoma cell line growth inhibition [RAS]
Settings: for IC50: curve of first compound; for viability, T/C: stronger effect = lower value
Method in brief: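 Tumour cells grown as complex spheroids with HUVEC endothelial cells and mesenchymal stem cells, treated with RAS pathway inhibitor combinations. Each agent spans half-log steps from near clinical Cmax, or 10 microM where Cmax is unknown.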

[1] = second compound 0.000949 µM, first compound 0.00316 µM
[2] = second compound 0.000949 µM, first compound 0.01 µM
[3] = second compound 0.000949 µM, first compound 0.0316 µM
[4] = second compound 0.000949 µM, first compound 0.1 µM
[5] = second compound 0.000949 µM, first compound 0.316 µM
[6] = second compound 0.000949 µM, first compound 1 µM
[7] = second compound 0.003 µM, first compound 0.00316 µM
[8] = second compound 0.003 µM, first compound 0.01 µM
[9] = second compound 0.003 µM, first compound 0.0316 µM
[10] = second compound 0.003 µM, first compound 0.1 µM
[11] = second compound 0.003 µM, first compound 0.316 µM
[12] = second compound 0.003 µM, first compound 1 µM
[13] = second compound 0.00949 µM, first compound 0.00316 µM
[14] = second compound 0.00949 µM, first compound 0.01 µM
[15] = second compound 0.00949 µM, first compound 0.0316 µM
[16] = second compound 0.00949 µM, first compound 0.1 µM
[17] = second compound 0.00949 µM, first compound 0.316 µM
[18] = second compound 0.00949 µM, first compound 1 µM
[19] = second compound 0.03 µM, first compound 0.00316 µM
[20] = second compound 0.03 µM, first compound 0.01 µM
[21] = second compound 0.03 µM, first compound 0.0316 µM
[22] = second compound 0.03 µM, first compound 0.1 µM
[23] = second compound 0.03 µM, first compound 0.316 µM
[24] = second compound 0.03 µM, first compound 1 µM
[25] = second compound 0.0949 µM, first compound 0.00316 µM
[26] = second compound 0.0949 µM, first compound 0.01 µM
[27] = second compound 0.0949 µM, first compound 0.0316 µM
[28] = second compound 0.0949 µM, first compound 0.1 µM
[29] = second compound 0.0949 µM, first compound 0.316 µM
[30] = second compound 0.0949 µM, first compound 1 µM
[31] = second compound 0.3 µM, first compound 0.00316 µM
[32] = second compound 0.3 µM, first compound 0.01 µM
[33] = second compound 0.3 µM, first compound 0.0316 µM
[34] = second compound 0.3 µM, first compound 0.1 µM
[35] = second compound 0.3 µM, first compound 0.316 µM
[36] = second compound 0.3 µM, first compound 1 µM
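Further: spheroids exposed to agents for one week before readout.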
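Wherever viability, T/C is given: percent viability relative to DMSO vehicle control wells as 100%.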

C=CC(=O)N1CCN(c2nc(OCC3CCCN3C)nc3c(F)c(-c4nc(N)cc(C)c4C(F)(F)F)c(Cl)cc23)C(C)C1 (stereo unspecified) + CCn1c(-c2cc(N3CCN(C)CC3)cnc2C(C)OC)c2c3cc(ccc31)-c1csc(n1)CC(NC(=O)C1CC1C)C(=O)N1CCCC(N1)C(=O)OCC(C)(C)C2
IC50 (second compound 0.000949 µM): > 1000 nM | IC50 (second compound 0.003 µM): > 1000 nM | IC50 (second compound 0.00949 µM): > 1000 nM | IC50 (second compound 0.03 µM): > 1000 nM | IC50 (second compound 0.0949 µM): > 1000 nM | IC50 (second compound 0.3 µM): > 1000 nM | viability, T/C [1]: 131% | viability, T/C [2]: 119% | viability, T/C [3]: 138% | viability, T/C [4]: 69.5% | viability, T/C [5]: 77.9% | viability, T/C [6]: 94.2% | viability, T/C [7]: 115% | viability, T/C [8]: 138% | viability, T/C [9]: 83.6% | viability, T/C [10]: 78.6% | viability, T/C [11]: 85.3% | viability, T/C [12]: 86.1% | viability, T/C [13]: 101% | viability, T/C [14]: 111% | viability, T/C [15]: 105% | viability, T/C [16]: 74.1% | viability, T/C [17]: 90.3% | viability, T/C [18]: 94.4% | viability, T/C [19]: 80.2% | viability, T/C [20]: 124% | viability, T/C [21]: 108% | viability, T/C [22]: 82% | viability, T/C [23]: 110% | viability, T/C [24]: 87.7% | viability, T/C [25]: 102% | viability, T/C [26]: 128% | viability, T/C [27]: 98.3% | viability, T/C [28]: 104% | viability, T/C [29]: 125% | viability, T/C [30]: 103% | viability, T/C [31]: 79% | viability, T/C [32]: 137% | viability, T/C [33]: 128% | viability, T/C [34]: 97.8% | viability, T/C [35]: 135% | viability, T/C [36]: 106%

CC1(C)CCC(Nc2ncc(C(F)(F)F)c(-c3c[nH]c4c(P(C)(C)=O)c(C#N)ccc34)n2)CN1 (stereo unspecified) + CCn1c(-c2cc(N3CCN(C)CC3)cnc2C(C)OC)c2c3cc(ccc31)-c1csc(n1)CC(NC(=O)C1CC1C)C(=O)N1CCCC(N1)C(=O)OCC(C)(C)C2
IC50 (second compound 0.000949 µM): 6.91 nM | IC50 (second compound 0.003 µM): 6.78 nM | IC50 (second compound 0.00949 µM): 6.97 nM | IC50 (second compound 0.03 µM): 7.53 nM | IC50 (second compound 0.0949 µM): 7.39 nM | IC50 (second compound 0.3 µM): 6.14 nM | viability, T/C (second compound 0.000949 µM, first compound 0.000949 µM): 124% | viability, T/C (second compound 0.000949 µM, first compound 0.003 µM): 104% | viability, T/C (second compound 0.000949 µM, first compound 0.00949 µM): 29% | viability, T/C (second compound 0.000949 µM, first compound 0.03 µM): 14.5% | viability, T/C (second compound 0.000949 µM, first compound 0.0949 µM): 8.71% | viability, T/C (second compound 0.000949 µM, first compound 0.3 µM): 9.97% | viability, T/C (second compound 0.003 µM, first compound 0.000949 µM): 134% | viability, T/C (second compound 0.003 µM, first compound 0.003 µM): 99.9% | viability, T/C (second compound 0.003 µM, first compound 0.00949 µM): 29.9% | viability, T/C (second compound 0.003 µM, first compound 0.03 µM): 8.54% | viability, T/C (second compound 0.003 µM, first compound 0.0949 µM): 10.7% | viability, T/C (second compound 0.003 µM, first compound 0.3 µM): 9.36% | viability, T/C (second compound 0.00949 µM, first compound 0.000949 µM): 130% | viability, T/C (second compound 0.00949 µM, first compound 0.003 µM): 116% | viability, T/C (second compound 0.00949 µM, first compound 0.00949 µM): 26% | viability, T/C (second compound 0.00949 µM, first compound 0.03 µM): 14.3% | viability, T/C (second compound 0.00949 µM, first compound 0.0949 µM): 12.3% | viability, T/C (second compound 0.00949 µM, first compound 0.3 µM): 11.2% | viability, T/C (second compound 0.03 µM, first compound 0.000949 µM): 113% | viability, T/C (second compound 0.03 µM, first compound 0.003 µM): 115% | viability, T/C (second compound 0.03 µM, first compound 0.00949 µM): 34% | viability, T/C (second compound 0.03 µM, first compound 0.03 µM): 16.7% | viability, T/C (second compound 0.03 µM, first compound 0.0949 µM): 12.3% | viability, T/C (second compound 0.03 µM, first compound 0.3 µM): 10.1% | viability, T/C (second compound 0.0949 µM, first compound 0.000949 µM): 122% | viability, T/C (second compound 0.0949 µM, first compound 0.003 µM): 139% | viability, T/C (second compound 0.0949 µM, first compound 0.00949 µM): 27.6% | viability, T/C (second compound 0.0949 µM, first compound 0.03 µM): 12.7% | viability, T/C (second compound 0.0949 µM, first compound 0.0949 µM): 13.7% | viability, T/C (second compound 0.0949 µM, first compound 0.3 µM): 9.77% | viability, T/C (second compound 0.3 µM, first compound 0.000949 µM): 128% | viability, T/C (second compound 0.3 µM, first compound 0.003 µM): 86.9% | viability, T/C (second compound 0.3 µM, first compound 0.00949 µM): 27.7% | viability, T/C (second compound 0.3 µM, first compound 0.03 µM): 12.8% | viability, T/C (second compound 0.3 µM, first compound 0.0949 µM): 12.7% | viability, T/C (second compound 0.3 µM, first compound 0.3 µM): 11.7%

C=CC(=O)Nc1cc(Nc2nccc(-c3cn(C)c4ccccc34)n2)c(OC)cc1N(C)CCN(C)C + CCn1c(-c2cccnc2C(C)OC)c2c3cc(ccc31)N1CCOC(CC(NC(=O)C(C(C)C)N(C)C(=O)C3(F)CCN(C(=O)C#CC(C)(C)N(C)C)CC3)C(=O)N3CCCC(N3)C(=O)OCC(C)(C)C2)C1
IC50 (second compound 0.000949 µM): > 1000 nM | IC50 (second compound 0.003 µM): > 1000 nM | IC50 (second compound 0.00949 µM): > 1000 nM | IC50 (second compound 0.03 µM): > 1000 nM | IC50 (second compound 0.0949 µM): > 1000 nM | IC50 (second compound 0.3 µM): > 1000 nM | viability, T/C [1]: 101% | viability, T/C [2]: 101% | viability, T/C [3]: 99.9% | viability, T/C [4]: 56.5% | viability, T/C [5]: 77.5% | viability, T/C [6]: 67.8% | viability, T/C [7]: 106% | viability, T/C [8]: 84.3% | viability, T/C [9]: 82.1% | viability, T/C [10]: 56.4% | viability, T/C [11]: 55.1% | viability, T/C [12]: 61.9% | viability, T/C [13]: 87% | viability, T/C [14]: 97% | viability, T/C [15]: 90.8% | viability, T/C [16]: 66.4% | viability, T/C [17]: 78.5% | viability, T/C [18]: 78.4% | viability, T/C [19]: 65% | viability, T/C [20]: 90% | viability, T/C [21]: 99.3% | viability, T/C [22]: 69.8% | viability, T/C [23]: 92.7% | viability, T/C [24]: 77.5% | viability, T/C [25]: 76.9% | viability, T/C [26]: 93.5% | viability, T/C [27]: 117% | viability, T/C [28]: 67.8% | viability, T/C [29]: 113% | viability, T/C [30]: 67.7% | viability, T/C [31]: 81.5% | viability, T/C [32]: 107% | viability, T/C [33]: 111% | viability, T/C [34]: 101% | viability, T/C [35]: 108% | viability, T/C [36]: 90.8%
